Tests used:
[1] = system: HCT116 MTAP-deleted cells; experiment: Cell viability assay (CellTiter-Glo, 7 days), HCT116 MTAP-deleted; details: Homo sapiens, HCT-116, 168 h
[2] = system: SDMA signal (PRMT5 inhibition) in HCT116 MTAP-deleted cells; experiment: Symmetric di-methyl arginine image-based high content screen assay (SDMA assay), HCT116 MTAP-deleted; type: cell-based; details: SDMA assay; for EC50: Homo sapiens, HCT-116, 72 h, 3 days of treatment, cell line not given, taken as HCT116 MTAP-deleted, read-out: EC50 (SDMA assay); for EC50 selectivity (SDMA assay): taken as HCT116 WT versus MTAP-deleted
Summary of the method: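 HCT116 MTAP-deleted cells treated with compound until Day 3, then formalin-fixed, permeabilized and immunostained for SDMA, with DAPI nuclear counterstain. Imaged by high-content microscopy; SDMA read-out is mean Alexa 488 intensity per DAPI-defined cell, reflecting PRMT5 inhibition.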

Question: How did the CC50 [1] turn out when `CC(=O)N(C)N(Cc1ccc(-c2cn(C(F)(F)F)cn2)cc1F)C(=O)c1ccc2nc(N)c3cnn(C)c3c2c1` [Example 223, N′-acetyl-4-amino-N-(2-fluoro-4-(1-(trifluoromethyl)-1H-imidazol-4-yl)benzyl)-N′,1-dimethyl-1H-pyrazolo[4,3-c]quinoline-8-carbohydrazide] was run?
Answer: The CC50 was less than 100 nM.

Question: What about the EC50 [2] of the same molecule?
Answer: Its EC50 is 1 to 5 nM.

Question: And the “EC50 selectivity (SDMA assay)” value [2]?
Answer: The value was 139.

Question: Which CC50 [1] does the source give for `CN(C(=O)N1CC(F)(F)C1)N(Cc1ccc(C(F)(F)F)cn1)C(=O)c1ccc2nc(N)c3cnn(C)c3c2c1` [Example 157, 4-amino-N′-(3,3-difluoroazetidine-1-carbonyl)-N′,1-dimethyl-N-((5-(trifluoromethyl)pyridin-2-yl)methyl)-1H-pyrazolo[4,3-c]quinoline-8-carbohydrazide] here?
Answer: The CC50 was less than 100 nM.

Question: And the EC50 [2]?
Answer: The EC50 was less than 1 nM.

Question: What about the “EC50 selectivity (SDMA assay)” value [2] of the same molecule?
Answer: Its value is 54.

Question: Which results are given for `Cn1ncc2c(N)nc3ccc(C(=O)N(Cc4ccc(C(F)(F)F)cn4)N4CC(C(F)(F)F)OC4=O)cc3c21` (stereo not drawn) [Example 178, 4-amino-1-methyl-N-(2-oxo-5-(trifluoromethyl)oxazolidin-3-yl)-N-((5-(trifluoromethyl)pyridin-2-yl)methyl)-1H-pyrazolo[4,3-c]quinoline-8-carboxamide]?
Answer: CC50 [1]: 100 to 1000 nM; EC50 [2]: > 5 nM; EC50 selectivity (SDMA assay) [2]: 138

Question: Which CC50 [1] does the source give for `Cn1ncc2c(N)nc3cc(F)c(C(=O)N(Cc4ccc(OC(F)F)cc4F)N4CCCC4=O)cc3c21` [Example 78, 4-amino-N-(4-(difluoromethoxy)-2-fluorobenzyl)-7-fluoro-1-methyl-N-(2-oxopyrrolidin-1-yl)-1H-pyrazolo[4,3-c]quinoline-8-carboxamide] here?
Answer: Its CC50 is less than 100 nM.

Question: And the EC50 [2]?
Answer: Its EC50 is less than 1 nM.

Question: And the “EC50 selectivity (SDMA assay)” value [2]?
Answer: Its value is 19.

Question: Which CC50 [1] does the source give for `COC(C)(C)C(=O)N(C)N(Cc1ccc(C(F)(F)F)cn1)C(=O)c1ccc2nc(N)c3cnn(C)c3c2c1` [Example 201, 4-amino-N′-(2-methoxy-2-methyl-propanoyl)-N′,1-dimethyl-N-[[5-(trifluoromethyl)-2-pyridyl]methyl]pyrazolo[4,3-c]quinoline-8-carbohydrazide] here?
Answer: Its CC50 is less than 100 nM.

Question: What about the EC50 [2] of the same molecule?
Answer: Its EC50 is 1 to 5 nM.

Question: And the “EC50 selectivity (SDMA assay)” value [2]?
Answer: Its value is 423.

Question: `CC(=O)N(C)N(Cc1ccccc1F)C(=O)c1ccc2nc(N)c3cnn(C)c3c2c1` [Example 181, N′-acetyl-4-amino-N-(2-fluorobenzyl)-N′,1-dimethyl-1H-pyrazolo[4,3-c]quinoline-8-carbohydrazide] was tested. Which CC50 [1] did it give?
Answer: The CC50 was 100 to 1000 nM.

Question: What about the EC50 [2] of the same molecule?
Answer: The EC50 was 1 to 5 nM.

Question: And the “EC50 selectivity (SDMA assay)” value [2]?
Answer: Its value is 441.

Question: Which CC50 [1] does the source give for `CN(C(=O)C12CC(CO1)C2)N(Cc1ccc(C(F)(F)F)cn1)C(=O)c1ccc2nc(N)c3cnn(C)c3c2c1` [Example 185, 4-amino-N′,1-dimethyl-N′-(2-oxabicyclo[2.1.1]hexane-1-carbonyl)-N-[[5-(trifluoromethyl)-2-pyridyl]methyl]pyrazolo[4,3-c]quinoline-8-carbohydrazide] here?
Answer: The CC50 was less than 100 nM.

Question: What about the EC50 [2] of the same molecule?
Answer: Its EC50 is less than 1 nM.

Question: And the “EC50 selectivity (SDMA assay)” value [2]?
Answer: The value was 33.

Question: How did the CC50 [1] turn out when `CN(c1ccccn1)N(Cc1ccc(C(F)(F)F)cn1)C(=O)c1ccc2nc(N)c3cnn(C)c3c2c1` [Example 25, 4-amino-N′, 1-dimethyl-N′-(2-pyridyl)-N-[[5-(trifluoromethyl)-2-pyridyl]methyl]pyrazolo[4,3-c]quinoline-8-carbohydrazide] was run?
Answer: Its CC50 is less than 100 nM.

Question: And the EC50 [2]?
Answer: The EC50 was 1 to 5 nM.

Question: And the “EC50 selectivity (SDMA assay)” value [2]?
Answer: The value was 26.

Question: What does the source list for `CN(C(=O)C12CC(C#N)(C1)C2)N(Cc1ccc(C(F)(F)F)cn1)C(=O)c1ccc2nc(N)c3cnn(C)c3c2c1` [Example 188, 4-amino-N′-(3-cyanobicyclo[1.1.1]pentane-1-carbonyl)-N′,1-dimethyl-N-[[5-(trifluoromethyl)-2-pyridyl]methyl]pyrazolo[4,3-c]quinoline-8-carbohydrazide]?
Answer: CC50 [1]: 100 to 1000 nM; EC50 [2]: > 5 nM; EC50 selectivity (SDMA assay) [2]: 62

Question: Which results are given for `Cn1ncc2c(N)nc3ccc(C(=O)N(Cc4ccc(C(F)(F)F)cn4)N4Cc5ccccc5C4=O)cc3c21` [Example 35, 4-amino-1-methyl-N-(1-oxoisoindolin-2-yl)-N-[[5-(trifluoromethyl)-2-pyridyl]methyl]pyrazolo[4,3-c]quinoline-8-carboxamide]?
Answer: CC50 [1]: < 100 nM; EC50 [2]: < 1 nM; EC50 selectivity (SDMA assay) [2]: 103

Question: Which results are given for `Cn1ncc2c(N)nc3ccc(C(=O)N(Cc4ccc5nsnc5c4)N4CCCC4=O)cc3c21` [Example 95, 4-amino-N-(2,1,3-benzothiadiazol-5-ylmethyl)-1-methyl-N-(2-oxopyrrolidin-1-yl)pyrazolo[4,3-c]quinoline-8-carboxamide]?
Answer: CC50 [1]: < 100 nM; EC50 [2]: < 1 nM; EC50 selectivity (SDMA assay) [2]: 205

Question: `CN(C(=O)C1CC1)N(Cc1ccc(-c2cnn(C(F)F)c2)cc1F)C(=O)c1ccc2nc(N)c3cnn(C)c3c2c1` [Example 238, 4-amino-N′-(cyclopropanecarbonyl)-N-(4-(1-(difluoromethyl)-1H-pyrazol-4-yl)-2-fluorobenzyl)-N′,1-dimethyl-1H-pyrazolo[4,3-c]quinoline-8-carbohydrazide] was tested. Which CC50 [1] did it give?
Answer: Its CC50 is less than 100 nM.

Question: What about the EC50 [2] of the same molecule?
Answer: Its EC50 is less than 1 nM.

Question: And the “EC50 selectivity (SDMA assay)” value [2]?
Answer: The value was 77.

Question: Which CC50 [1] does the source give for `CN(C(=O)C(F)(F)C1CC1)N(Cc1ccc(C(F)(F)F)cn1)C(=O)c1ccc2nc(N)c3cnn(C)c3c2c1` [Example 342, 4-amino-N′-(2-cyclopropyl-2,2-difluoroacetyl)-N′,1-dimethyl-N-((5-(trifluoromethyl)pyridin-2-yl)methyl)-1H-pyrazolo[4,3-c]quinoline-8-carbohydrazide] here?
Answer: The CC50 was less than 100 nM.

Question: And the EC50 [2]?
Answer: The EC50 was 1 to 5 nM.

Question: And the “EC50 selectivity (SDMA assay)” value [2]?
Answer: Its value is 30.

Question: How did the CC50 [1] turn out when `CC(=O)N(C)N(Cc1ccc2nc(C(F)(F)F)sc2c1)C(=O)c1ccc2nc(N)c3cnn(C)c3c2c1` [Example 337, N′-acetyl-4-amino-N′,1-dimethyl-N-((2-(trifluoromethyl)benzo[d]thiazol-6-yl)methyl)-1H-pyrazolo[4,3-c]quinoline-8-carbohydrazide] was run?
Answer: Its CC50 is less than 100 nM.

Question: What about the EC50 [2] of the same molecule?
Answer: Its EC50 is 1 to 5 nM.

Question: And the “EC50 selectivity (SDMA assay)” value [2]?
Answer: The value was 67.

Question: `CC(=O)N(C)N(Cc1ccc2scnc2c1)C(=O)c1ccc2nc(N)c3cnn(C)c3c2c1` [Example 327, N′-acetyl-4-amino-N-(benzo[d]thiazol-5-ylmethyl)-N′,1-dimethyl-1H-pyrazolo[4,3-c]quinoline-8-carbohydrazide] was tested. Which CC50 [1] did it give?
Answer: Its CC50 is less than 100 nM.

Question: And the EC50 [2]?
Answer: Its EC50 is 1 to 5 nM.

Question: What about the “EC50 selectivity (SDMA assay)” value [2] of the same molecule?
Answer: Its value is 549.

Question: Which CC50 [1] does the source give for `Cn1ncc2c(N)nc3ccc(C(=O)N(Cc4ccc(C(F)(F)F)c(F)c4)N4CCCC4=O)cc3c21` [Example 15, 4-amino-N-(3-fluoro-4-(trifluoromethyl)benzyl)-1-methyl-N-(2-oxopyrrolidin-1-yl)-1H-pyrazolo[4,3-c]quinoline-8-carboxamide] here?
Answer: Its CC50 is less than 100 nM.

Question: And the EC50 [2]?
Answer: Its EC50 is 1 to 5 nM.

Question: What about the “EC50 selectivity (SDMA assay)” value [2] of the same molecule?
Answer: Its value is 23.

Question: For `CC(=O)N(C)N(Cc1nc2cc(Cl)ccc2n1C)C(=O)c1ccc2nc(N)c3cnn(C)c3c2c1` [Example 209, N′-Acetyl-4-amino-N-[(5-chloro-1-methyl-benzimidazol-2-yl)methyl]-N′,1-dimethyl-pyrazolo[4,3-c]quinoline-8-carbohydrazide], which CC50 [1] is on record?
Answer: The CC50 was less than 100 nM.

Question: And the EC50 [2]?
Answer: Its EC50 is less than 1 nM.

Question: And the “EC50 selectivity (SDMA assay)” value [2]?
Answer: The value was 228.

Question: `CN(C(=O)N1CCC1)N(Cc1ccc(C(F)(F)F)cn1)C(=O)c1ccc2nc(N)c3cnn(C)c3c2c1` [Example 126, 4-amino-N′-(azetidine-1-carbonyl)-N′,1-dimethyl-N-((5-(trifluoromethyl)pyridin-2-yl)methyl)-1H-pyrazolo[4,3-c]quinoline-8-carbohydrazide] was tested. Which CC50 [1] did it give?
Answer: Its CC50 is less than 100 nM.

Question: What about the EC50 [2] of the same molecule?
Answer: The EC50 was less than 1 nM.

Question: And the “EC50 selectivity (SDMA assay)” value [2]?
Answer: Its value is 45.

From patent US20240254118A1, “PRMT5 INHIBITORS AND USES THEREOF” (Gilead Sciences, Inc., priority 2022, published 2024)
